Read-outs that look alike come from different tables or passages of the source. Ends that are not written are not given here.
Assays:
human GIP receptor = target: T1, human GIP receptor (Homo sapiens, UniProt P48546); test: biochemical; type: binding
T1 construct: expressed in transfected cells; host or cells: HEK293 (HEK-GIPR), membranes
T1 sequence (P48546 22-466): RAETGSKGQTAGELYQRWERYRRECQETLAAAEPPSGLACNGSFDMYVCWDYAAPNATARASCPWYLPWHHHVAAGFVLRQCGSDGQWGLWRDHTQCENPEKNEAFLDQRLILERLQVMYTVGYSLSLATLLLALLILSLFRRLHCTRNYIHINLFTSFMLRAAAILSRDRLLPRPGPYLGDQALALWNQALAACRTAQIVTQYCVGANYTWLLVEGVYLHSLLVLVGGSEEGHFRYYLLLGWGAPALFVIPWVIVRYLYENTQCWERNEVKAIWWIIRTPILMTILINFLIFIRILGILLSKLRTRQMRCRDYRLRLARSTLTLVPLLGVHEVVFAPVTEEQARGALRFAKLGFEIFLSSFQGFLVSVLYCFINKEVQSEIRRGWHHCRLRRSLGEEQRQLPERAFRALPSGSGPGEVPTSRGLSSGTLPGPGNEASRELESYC

[1] = type: in vivo, NIH/Swiss mice; settings: 30 nmol/kg
Method: (§1) In FIG. 3A, bars represent mean±sd, n=6-10. […] Gavage (1.5 g/kg) was given at t=0, Sample was taken at t=30 min. […] In FIG. 3B, points represent mean±sem, n=8-15.
Peptide was injected IP at t=−5 minutes into 4-hour fasted NIH/Swiss female mice. […] In FIG. 17 points represent mean+/−sem. […] Samples were taken at t=60, t=120 and t=180.

[2] = type: in vivo, NIH/Swiss mice; settings: 80 nmol/kg, AUC240
Method: as §1
Points represent mean±sem.

[3] = read-out: (% Inh 10 nm, GIP-LF Assay)
[4] = read-out: GIP RBA (% Inh 10 nM)

Compound | inhibition at 0.01 µM (human GIP receptor; [3]) [%] | OGTT/GL (%) [1] | Basal Glucose Lowering at Peptide Conc. of 80 nmol/kg [2] | inhibition at 0.01 µM (human GIP receptor; [4]) [%]
HGEGTFISDYSIALDKIRQQEFVNWLLAQKPKKIRYS-NH2 [Compound 0601GIP4842] | 40.8 |  |  | 
CC[C@H](C)[C@H](NC(=O)[C@H](CO)NC(=O)[C@H](Cc1ccc(O)cc1)NC(=O)[C@H](CC(=O)O)NC(=O)[C@H](CO)NC(=O)[C@@H](NC(=O)[C@H](Cc1ccccc1)NC(=O)[C@@H](NC(=O)CNC(=O)[C@H](CCC(=O)O)NC(=O)[C@@H](C)NC(=O)[C@@H](N)Cc1ccc(O)cc1)[C@@H](C)O)[C@@H](C)CC)C(=O)N[C@@H](C)C(=O)N[C@@H](CCSC)C(=O)N[C@@H](CC(=O)O)C(=O)N[C@@H](CCCCN)C(=O)N[C@H](C(=O)N[C@@H](Cc1c[nH]cn1)C(=O)N[C@@H](CCC(N)=O)C(=O)N[C@@H](CCC(N)=O)C(=O)N[C@@H](CC(=O)O)C(=O)N[C@@H](Cc1ccccc1)C(=O)N[C@H](C(=O)N[C@@H](CC(N)=O)C(=O)N[C@@H](Cc1c[nH]c2ccccc12)C(=O)N[C@@H](CC(C)C)C(=O)N[C@@H](CC(C)C)C(=O)N[C@@H](C)C(=O)N[C@@H](CCC(N)=O)C(=O)N[C@@H](CCCCN)C(=O)N1CCC[C@H]1C(=O)N[C@@H](CCCCN)C(=O)NCC(=O)N[C@@H](CCCCN)C(=O)NCC(=O)N[C@@H](CCCCN)C(=O)N[C@@H](CO)C(N)=O)C(C)C)[C@@H](C)CC [0601GIP4700] |  | −21, 30% | −6%, AUC240 | 86.6
CC[C@H](C)[C@H](NC(=O)[C@H](CO)NC(=O)[C@H](Cc1ccc(O)cc1)NC(=O)[C@H](CC(=O)O)NC(=O)[C@H](CO)NC(=O)[C@@H](NC(=O)[C@H](Cc1ccccc1)NC(=O)[C@@H](NC(=O)CNC(=O)[C@H](CCC(=O)O)NC(=O)CNC(=O)[C@@H](N)Cc1c[nH]cn1)[C@@H](C)O)[C@@H](C)CC)C(=O)N[C@@H](C)C(=O)N[C@@H](CCSC)C(=O)N[C@@H](CC(=O)O)C(=O)N[C@@H](CCCCN)C(=O)N[C@H](C(=O)N[C@@H](Cc1c[nH]cn1)C(=O)N[C@@H](CCC(N)=O)C(=O)N[C@@H](CCC(N)=O)C(=O)N[C@@H](CC(=O)O)C(=O)N[C@@H](Cc1ccccc1)C(=O)N[C@H](C(=O)N[C@@H](CC(N)=O)C(=O)N[C@@H](Cc1c[nH]c2ccccc12)C(=O)N[C@@H](CC(C)C)C(=O)N[C@@H](CC(C)C)C(=O)N[C@@H](C)C(=O)N[C@@H](CCC(N)=O)C(=O)N[C@@H](CCCCN)C(=O)N1CCC[C@H]1C(=O)N[C@@H](CCCCN)C(=O)N[C@@H](CCCCN)C(=O)N[C@H](C(=O)N[C@@H](CCCNC(=N)N)C(=O)N[C@@H](Cc1ccc(O)cc1)C(=O)N[C@@H](CO)C(N)=O)[C@@H](C)CC)C(C)C)[C@@H](C)CC [Compound 0601GIP4839] | 23.9 |  |  | 
CC[C@H](C)[C@H](NC(=O)[C@H](CCCCN)NC(=O)[C@H](CC(=O)O)NC(=O)[C@H](CC(C)C)NC(=O)[C@H](C)NC(=O)[C@@H](NC(=O)[C@H](CO)NC(=O)[C@H](Cc1ccc(O)cc1)NC(=O)[C@H](CC(=O)O)NC(=O)[C@H](CO)NC(=O)[C@@H](NC(=O)[C@H](Cc1ccccc1)NC(=O)[C@@H](NC(=O)CNC(=O)[C@H](CCC(=O)O)NC(=O)CNC(=O)[C@@H](N)Cc1c[nH]cn1)[C@@H](C)O)[C@@H](C)CC)[C@@H](C)CC)C(=O)N[C@@H](C)C(=O)N[C@@H](CCC(N)=O)C(=O)N[C@@H](CCC(N)=O)C(=O)N[C@@H](CCC(=O)O)C(=O)N[C@@H](Cc1ccccc1)C(=O)N[C@H](C(=O)N[C@@H](CC(N)=O)C(=O)N[C@@H](Cc1c[nH]c2ccccc12)C(=O)N[C@@H](CC(C)C)C(=O)N[C@@H](CC(C)C)C(=O)N[C@@H](C)C(=O)N[C@@H](CCC(N)=O)C(=O)N[C@@H](CCCCN)C(=O)N1CCC[C@H]1C(=O)N[C@@H](CCCCN)C(=O)N[C@@H](CCCCN)C(=O)N[C@H](C(=O)N[C@@H](CCCNC(=N)N)C(=O)N[C@@H](Cc1ccc(O)cc1)C(=O)N[C@@H](CO)C(N)=O)[C@@H](C)CC)C(C)C [Compound 0601GIP4841] | 56.6 |  |  | 
CC[C@H](C)[C@H](NC(=O)[C@H](CCCCN)NC(=O)[C@H](CC(=O)O)NC(=O)[C@H](CC(C)C)NC(=O)[C@H](C)NC(=O)[C@@H](NC(=O)[C@H](CO)NC(=O)[C@H](Cc1ccc(O)cc1)NC(=O)[C@H](CC(=O)O)NC(=O)[C@H](CO)NC(=O)[C@@H](NC(=O)[C@H](Cc1ccccc1)NC(=O)[C@@H](NC(=O)CNC(=O)[C@H](CCC(=O)O)NC(=O)[C@H](C)NC(=O)[C@H](Cc1ccc(O)cc1)NC(=O)[C@@H](N)CC(C)C)[C@@H](C)O)[C@@H](C)CC)[C@@H](C)CC)C(=O)N[C@@H](C)C(=O)N[C@@H](CCC(N)=O)C(=O)N[C@@H](CCC(N)=O)C(=O)N[C@@H](CCC(=O)O)C(=O)N[C@@H](Cc1ccccc1)C(=O)N[C@H](C(=O)N[C@@H](CC(N)=O)C(=O)N[C@@H](Cc1c[nH]c2ccccc12)C(=O)N[C@@H](CC(C)C)C(=O)N[C@@H](CC(C)C)C(=O)N[C@@H](C)C(=O)N[C@@H](CCC(N)=O)C(=O)N[C@@H](CCCCN)C(=O)N1CCC[C@H]1C(=O)N[C@@H](CCCCN)C(=O)N[C@@H](CCCCN)C(=O)N[C@H](C(=O)N[C@@H](CCCNC(=N)N)C(=O)N[C@@H](Cc1ccc(O)cc1)C(=O)N[C@@H](CO)C(N)=O)[C@@H](C)CC)C(C)C [0601GIP4803] | 89.9 | −16, % |  | 89.9
CC[C@H](C)[C@H](NC(=O)[C@H](CO)NC(=O)[C@H](Cc1ccc(O)cc1)NC(=O)[C@H](CC(=O)O)NC(=O)[C@H](CO)NC(=O)[C@@H](NC(=O)[C@H](Cc1ccccc1)NC(=O)[C@@H](NC(=O)CNC(=O)[C@H](CCC(=O)O)NC(=O)[C@H](CO)NC(=O)[C@@H](N)Cc1ccc(O)cc1)[C@@H](C)O)[C@@H](C)CC)C(=O)N[C@@H](C)C(=O)N[C@@H](CCSC)C(=O)N[C@@H](CC(=O)O)C(=O)N[C@@H](CCCCN)C(=O)N[C@H](C(=O)N[C@@H](Cc1c[nH]cn1)C(=O)N[C@@H](CCC(N)=O)C(=O)N[C@@H](CCC(N)=O)C(=O)N[C@@H](CC(=O)O)C(=O)N[C@@H](Cc1ccccc1)C(=O)N[C@H](C(=O)N[C@@H](CC(N)=O)C(=O)N[C@@H](Cc1c[nH]c2ccccc12)C(=O)N[C@@H](CC(C)C)C(=O)N[C@@H](CC(C)C)C(=O)N[C@@H](C)C(=O)N[C@@H](CCC(N)=O)C(=O)N[C@@H](CCCCN)C(=O)N1CCC[C@H]1C(=O)N[C@@H](CCCCN)C(=O)N[C@@H](CCCCN)C(=O)N[C@H](C(=O)N[C@@H](CCCNC(=N)N)C(=O)N[C@@H](Cc1ccc(O)cc1)C(=O)N[C@@H](CO)C(N)=O)[C@@H](C)CC)C(C)C)[C@@H](C)CC [0601GIP4538] |  | −9, 30% |  | 94.2
HGEGTLISDYSIAMDKIHQQDFVNWLLAQKPKKIRYS-NH2 [Compound 0601GIP4843] | 3 |  |  | 
CC[C@H](C)[C@H](NC(=O)CNC(=O)[C@H](CCCCN)NC(=O)[C@H](Cc1c[nH]c2ccccc12)NC(=O)[C@H](CC(C)C)NC(=O)[C@@H](NC(=O)[C@H](Cc1ccccc1)NC(=O)CNC(=O)[C@H](CCCCN)NC(=O)[C@H](CCC(N)=O)NC(=O)[C@H](C)NC(=O)[C@H](CC(C)C)NC(=O)[C@H](CC(C)C)NC(=O)[C@H](Cc1c[nH]c2ccccc12)NC(=O)[C@H](CC(N)=O)NC(=O)[C@@H](NC(=O)[C@H](Cc1ccccc1)NC(=O)[C@H](CC(=O)O)NC(=O)[C@H](CCC(N)=O)NC(=O)[C@H](CCC(N)=O)NC(=O)[C@H](Cc1c[nH]cn1)NC(=O)[C@@H](NC(=O)[C@H](CCCCN)NC(=O)[C@H](CC(=O)O)NC(=O)[C@H](CCSC)NC(=O)[C@H](C)NC(=O)[C@@H](NC(=O)[C@H](CO)NC(=O)[C@H](Cc1ccc(O)cc1)NC(=O)[C@H](CC(=O)O)NC(=O)[C@H](CO)NC(=O)[C@@H](NC(=O)[C@H](Cc1ccccc1)NC(=O)[C@@H](NC(=O)CNC(=O)[C@H](CCC(=O)O)NC(=O)[C@@H](C)NC(=O)[C@@H](N)Cc1ccc(O)cc1)[C@@H](C)O)[C@@H](C)CC)[C@@H](C)CC)[C@@H](C)CC)C(C)C)C(C)C)C(=O)N[C@@H](CCC(N)=O)C(N)=O [Compound 0601GIP4619] |  |  |  | 84.6
CC[C@H](C)[C@H](NC(=O)[C@H](CO)NC(=O)[C@H](Cc1ccc(O)cc1)NC(=O)[C@H](CC(=O)O)NC(=O)[C@H](CO)NC(=O)[C@@H](NC(=O)[C@H](Cc1ccccc1)NC(=O)[C@@H](NC(=O)CNC(=O)[C@H](CC(=O)O)NC(=O)[C@H](CO)NC(=O)[C@@H](N)Cc1ccc(O)cc1)[C@@H](C)O)[C@@H](C)CC)C(=O)N[C@@H](C)C(=O)N[C@@H](CCSC)C(=O)N[C@@H](CC(=O)O)C(=O)N[C@@H](CCCCN)C(=O)N[C@H](C(=O)N[C@@H](Cc1c[nH]cn1)C(=O)N[C@@H](CCC(N)=O)C(=O)N[C@@H](CCC(N)=O)C(=O)N[C@@H](CC(=O)O)C(=O)N[C@@H](Cc1ccccc1)C(=O)N[C@H](C(=O)N[C@@H](CC(N)=O)C(=O)N[C@@H](Cc1c[nH]c2ccccc12)C(=O)N[C@@H](CC(C)C)C(=O)N[C@@H](CC(C)C)C(=O)N[C@@H](C)C(=O)N[C@@H](CCC(N)=O)C(=O)N[C@@H](CCCCN)C(=O)NCCC(=O)N1CCC[C@H]1C(=O)N[C@@H](CO)C(=O)N[C@@H](CO)C(=O)NCC(=O)N[C@@H](C)C(=O)N1CCC[C@H]1C(=O)N1CCC[C@H]1C(=O)N1CCC[C@H]1C(=O)N[C@@H](CO)C(N)=O)C(C)C)[C@@H](C)CC [Compound 0601GIP4395] |  | −11, 30% | −0%, AUC240 | 

Reference: US8497240B2 (priority 2006, dated 2013)
